Here are results for 78 compounds from PubChem BioAssay AID1033 (Sanford-Burnham Center for Chemical Genomics, 2008).

Activity calls are given as the source filed them. How the calls were made is not given here.

This assay concerns the target Chaperone protein DnaK (Escherichia coli (strain K12)) (UniProt P0A6Y8). The experiment in a line: E. coli DnaK SBD ligand binding – biophysical, NMR, chaperone (AID 1033). The settings on record: Purified DnaK SBD.

Sequence of Chaperone protein DnaK (Escherichia coli (strain K12)) (P0A6Y8 whole entry, looked up): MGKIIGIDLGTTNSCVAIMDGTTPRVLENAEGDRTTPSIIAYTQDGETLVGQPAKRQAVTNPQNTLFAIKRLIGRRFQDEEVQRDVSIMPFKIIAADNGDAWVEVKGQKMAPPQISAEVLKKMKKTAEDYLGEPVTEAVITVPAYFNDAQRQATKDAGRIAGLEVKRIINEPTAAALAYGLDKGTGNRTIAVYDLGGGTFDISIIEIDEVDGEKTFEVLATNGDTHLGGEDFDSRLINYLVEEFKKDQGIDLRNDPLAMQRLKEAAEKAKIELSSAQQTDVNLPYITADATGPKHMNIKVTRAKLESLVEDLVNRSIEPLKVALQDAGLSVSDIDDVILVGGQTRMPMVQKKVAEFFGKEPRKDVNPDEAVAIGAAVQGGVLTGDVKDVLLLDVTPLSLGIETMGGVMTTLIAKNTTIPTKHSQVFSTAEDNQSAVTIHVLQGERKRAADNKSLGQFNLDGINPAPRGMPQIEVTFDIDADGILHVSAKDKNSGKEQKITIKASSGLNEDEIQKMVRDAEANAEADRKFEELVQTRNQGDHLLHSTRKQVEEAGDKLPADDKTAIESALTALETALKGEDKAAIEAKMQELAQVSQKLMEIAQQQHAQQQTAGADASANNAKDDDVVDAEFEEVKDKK

By Kd is commonly meant the concentration at which binding is half-saturated. On to `CCOC(=O)c1c(C)[nH]c2ccc(O)cc12`, for which the Kd is > 4 mM (inactive).

As for `O=C(O)Cn1nnn(-c2ccccc2)c1=S`, the Kd is > 4 mM (inactive).

Take `CC(NC(=O)c1cccnc1)c1ccc2c(c1)OCO2` (stereo not drawn): the Kd was > 4 mM (inactive).

Regarding `COC(=O)C[C@H]1C(C)(C)C(=O)[C@@H]2CC3=C(CC[C@]4(C)C3=CC(=O)O[C@H]4c3ccoc3)C1(C)C2=O`, the Kd is > 4 mM (inactive).

As to `CCOC(=O)C1CCC(=O)c2cccn21` (stereo not drawn), the Kd was > 4 mM (inactive).

In the case of `O=C(Nc1ccon1)c1csc2c1CCCC2`, the Kd was > 4 mM (inactive).

Take `c1ccc(SCc2nc(-c3ccccn3)no2)cc1`: the Kd is > 4 mM (inactive).

In the case of `O=C(Nc1cccc(O)c1)c1ccccc1`, the Kd was > 4 mM (inactive).

As for `O=C1NC(=S)N/C1=C\c1cccc([N+](=O)[O-])c1`, the Kd is > 4 mM (inactive).

Consider `Nc1cccc2cccnc12`, for which the Kd was > 4 mM (inactive).

For the compound `Cc1nn(-c2ccccc2C(=O)O)c(=O)c2ccccc12`, the Kd was > 4 mM (inactive).

For `Cc1nnc(SCc2ccccc2)[nH]c1=O`, the Kd was > 4 mM (inactive).

For the compound `CSc1ncc(CO)n1Cc1ccccc1`, the Kd was > 4 mM (inactive).

`OCc1ccc2c(c1)OCCO2`: the Kd is > 4 mM (inactive).

For the compound `COc1cc2c(cc1O)CC1c3c(cc(O)c(OC)c3-2)CCN1C` (stereo not drawn), the Kd is > 4 mM (inactive).

Consider `C[C@H](CCC(=O)O)[C@H]1CCC2C3C(CC[C@@]21C)[C@@]1(C)CC[C@@H](O)C[C@H]1C[C@@H]3O` (stereo partly drawn), for which the Kd was > 4 mM (inactive).

In the case of `Cc1cccc(NC(=O)NC(N)=O)c1`, the Kd was > 4 mM (inactive).

For the compound `O=C1CSC(=O)N1CN1CCOCC1`, the Kd was > 4 mM (inactive).

Regarding `COc1cc(C(=S)N2CCCC2)cc(Cl)c1O`, the Kd was > 4 mM (inactive).

For `O=C(OCc1c(F)cccc1Cl)c1cnccn1`, the Kd was > 4 mM (inactive).

Take `O=C(O)C1COc2ccccc2C1` (stereo not drawn): the Kd is > 4 mM (inactive).

For the compound `Cc1cc(/C=N/O)nc(=O)[nH]1`, the Kd is > 4 mM (inactive).

For the compound `CC1=CCCC2C1(C)CCC(C)C2(C)CC/C(C)=C/C[n+]1cn(C)c2c(N)ncnc21` (stereo not drawn), the Kd was > 4 mM (inactive).

For `CC(=O)NCS(=O)(=O)c1ccc(C)cc1`, the Kd was > 4 mM (inactive).

Take `c1ccc(CCN2CCN(CCc3ccccn3)CC2)nc1`: the Kd is > 4 mM (inactive).

As for `O=C(NC(=S)NN1CCOCC1)c1cccs1`, the Kd was > 4 mM (inactive).

As for `CC(C)NC(=S)NCc1cnn(C)c1`, the Kd is > 4 mM (inactive).

Take `COC(=O)c1c(OC)cc2c(c1C)Oc1c(Cl)c(O)c(Cl)c(C)c1C(=O)O2`: the Kd is > 4 mM (inactive).

On to `CCOC(=O)c1cc2ccccc2oc1=O`, for which the Kd was > 4 mM (inactive).

On to `O=C(Nc1ccc(N2CCCC2=O)cc1)c1cccc(F)c1`, for which the Kd was > 4 mM (inactive).

As for `CN1CCC(O)N1C(=O)c1ccccc1O` (stereo not drawn), the Kd is > 4 mM (inactive).

As to `Cc1ncoc1C(=O)Nc1ncc([N+](=O)[O-])s1`, the Kd is > 4 mM (inactive).

On to `COc1ncnc(N)c1[N+](=O)[O-]`, for which the Kd is > 4 mM (inactive).

With `COc1nc(C)ccc1-c1noc(-c2ccncc2)n1`, the Kd is > 4 mM (inactive).

For `CN(C)S(=O)(=O)c1ccc(NC=O)cc1`, the Kd was > 4 mM (inactive).

On to `COc1ccc(C(=O)/C=C/c2ccccc2)cc1`, for which the Kd was > 4 mM (inactive).

As for `O=[N+]([O-])c1cccc(-c2nnco2)c1`, the Kd was > 4 mM (inactive).

As to `Fc1ccc(-c2n[nH]c(=S)n2CC2CCCO2)cc1` (stereo not drawn), the Kd is > 4 mM (inactive).

Regarding `CC(C)n1nnc2cc(C(=O)O)ccc21`, the Kd is > 4 mM (inactive).

For `OCc1nc2ccccc2s1`, the Kd was > 4 mM (inactive).

With `O=C(O)CNC(=O)c1ccc([N+](=O)[O-])cc1`, the Kd is > 4 mM (inactive).

As to `O=C(NCCO)c1cc2ccccc2c(=O)s1`, the Kd was > 4 mM (inactive).

Regarding `Cc1ccccc1CSc1nnc(C)n1N`, the Kd is > 4 mM (inactive).

Consider `COC(=O)N(c1ccccc1)P1(=S)OCCO1`, for which the Kd is > 4 mM (inactive).

For `c1ccc(-c2nsc(N3CCCNCC3)n2)cc1`, the Kd was > 4 mM (inactive).

`CNC(=O)C(=O)Nc1ccc(F)cc1`: the Kd is > 4 mM (inactive).

With `Fc1ccc(NC2=NCCS2)cc1Cl`, the Kd is > 4 mM (inactive).

For `NCc1n[nH]c(=O)c2ccccc12`, the Kd is > 4 mM (inactive).

With `O=C(O)/C=C/c1ccc(O)c(O)c1`, the Kd was > 4 mM (inactive).

Regarding `Cc1ccc(C(O)c2nccn2C)o1` (stereo not drawn), the Kd was > 4 mM (inactive).

Turning to `O=C1CCCC(=O)N1c1ccc(O)cc1`, the Kd was > 4 mM (inactive).

For `CN(Cc1nc2ccccc2n1C)C(=O)c1cccs1`, the Kd is > 4 mM (inactive).

Consider `CC(=O)Nn1c(=O)[nH]c2ccccc2c1=O`, for which the Kd was > 4 mM (inactive).

On to `COc1cccc(-c2nc3ccc(O)cc3c(=O)o2)c1`, for which the Kd was > 4 mM (inactive).

For `Cc1cc(C(=O)NC2=NCCS2)cs1`, the Kd is > 4 mM (inactive).

For the compound `NNc1ncnc2sccc12`, the Kd is > 4 mM (inactive).

As to `c1ccn(Cc2ccncc2)c1`, the Kd was > 4 mM (inactive).

Regarding `N#C/C(=C\c1ccc[nH]1)S(=O)(=O)c1ccccc1`, the Kd was > 4 mM (inactive).

With `Cc1csc2nc3ccccc3c(=O)n12`, the Kd was > 4 mM (inactive).

`O=C(NCc1cccnc1)c1ccccn1`: the Kd was > 4 mM (inactive).

Consider `Cc1ccc(CNc2ccc(O)cc2)cc1`, for which the Kd is > 4 mM (inactive).

Turning to `OCc1ccc(Oc2ccccc2)nc1`, the Kd was > 4 mM (inactive).

`c1ccc2[nH]c(SCc3cscn3)nc2c1`: the Kd was > 4 mM (inactive).

As for `CC(=O)Nc1nnc(-c2ccccn2)o1`, the Kd is > 4 mM (inactive).

On to `COC(=O)c1c[nH]c2ccccc12`, for which the Kd was > 4 mM (inactive).

Take `CCN=Cc1c(O)n(-c2ccccc2C)c(=O)[nH]c1=O`: the Kd is > 4 mM (inactive).

`O=C1C2C3C=CC(C3)C2C(=O)N1c1ccccn1` (stereo not drawn): the Kd was > 4 mM (inactive).

Regarding `Cn1c2ccccc2n2c(=S)[nH]nc12`, the Kd is > 4 mM (inactive).

In the case of `O=C(Nn1cnnc1)c1csc2c1CCCC2`, the Kd is > 4 mM (inactive).

`CCn1nnnc1Oc1ccc(Cl)cc1`: the Kd is > 4 mM (inactive).

Regarding `CCCn1c(S(=O)(=O)O)nc2ccccc21`, the Kd is > 4 mM (inactive).

Regarding `O=C1NC(=O)/C(=C/c2ccc(O)cc2)N1`, the Kd is > 4 mM (inactive).

Turning to `O=C1CSC(=Nc2ccc(C(=O)O)cc2)N1`, the Kd is > 4 mM (inactive).

For the compound `COCc1cc(=O)oc2cc(O)c(Cl)cc12`, the Kd is > 4 mM (inactive).

With `COC(=O)c1cccc2cc[nH]c12`, the Kd was > 4 mM (inactive).

`O=c1ccn(Cc2ccccc2)c(=O)n1Cc1ccccc1`: the Kd was > 4 mM (inactive).

In the case of `COc1ccccc1-c1noc(-c2ccncc2)n1`, the Kd is > 4 mM (inactive).

`O=c1c[n+]([O-])c2ccccc2n1OCc1ccccc1`: the Kd was > 4 mM (inactive).
